Test results reported in patent US12521440B2, “Degradation of bruton's tyrosine kinase (BTK) by conjugation of BTK inhibitors with E3 ligase ligand and methods of use” (BeOne Medicines I GmbH, priority 2021, dated 2026).

What was measured:
HEK-293 cells = experiment: HEK-293 cytotoxicity detection (CellTiter-Glo); format: cell-based; conditions: Homo sapiens, 72 h incubation, read-out: HEK293
Excerpt: (§1) The IC50 (DC50) value of a compound can be obtained by fitting the following equation Y=Bottom+(TOP−Bottom)/(1+((IC50/X)^hillslope)) wherein, X and Y are known values, and IC50, Hillslope, Top and Bottom are the parameters obtained by fitting with software. Y is the inhibition percentage (calculated from the equation), X is the concentration of the compound; IC50 is the concentration of the compound when the 50% inhibition is reached. The smaller the IC50 value is, the stronger the inhibitory ability of the compound is. Vice versa, the higher the IC50 value is, the weaker the ability the inhibitory ability of the compound is; Hillslope represents the slope of the fitted curve, generally around 1*; Bottom represents the minimum value of the curve obtained by data fitting, which is generally 0%±20%; Top represents the maximum value of the curve obtained by data fitting, which is generally 100%±20%. The experimental data were fitted by calculating and analyzing with Dotmatics data analysis software. HEK-293 Cell Treatment
HEK-293 cells were treated with compounds diluted in 0.2% DMSO, dilution was done according to the following protocol: (1) making 500×stock solution in DMSO from 5 mM by 4-fold dilution, total 8 doses were included; (2) making 2×solution in cell culture medium by transferring 0.5 ul 500×stock solution into 125 ul medium; (3) adding 50 ul of 2×solution to cells for incubation of 72 h.
25 μl of the CellTiter-Glo® Reagent [(Promega)—Cat No. G7572] was added to each well in the 96-well plate. The contents were mixed for 2 minutes on an orbital shaker to induce cell lysis. The plate was then allowed to incubate at room temperature for 10 minutes to stabilize luminescent signal. Luminescence was recorded on BMG PheraStar with luminescence protocol.
as §1, with “IC50” for “IC50 (DC50)”, “Wherein,” for “wherein,”, “software.” for “software. HEK-293 Cell Treatment”

BTK = target: T1, BTK (Homo sapiens, UniProt Q06187); experiment: BTK degradation in TMD-8 cells (HTRF assay); format: cell-based; conditions: 6 h treatment, HTRF BTK degradation IC50 (DC50)
T1 construct: endogenous in cells; host or cells: TMD-8 cells
Protocol: TMD-8 cells were treated with compounds diluted in 0.2% DMSO, dilution was done according to the following protocol: (1) making 500×stock solution in DMSO from 1 mM by 6-fold dilution, total 8 doses were included; (2) making 2×solution in cell culture medium by transferring 0.5 μl 500×stock solution into 125 μl medium; (3) adding 15 μl of 2×solution to cells for incubation of 6 h.
After 6 h treatment, 10 μl 4×lysis buffer was added to each well; the plate was sealed and incubated for 30 min at room temperature on a plate shaker; Once the cells was lysed, 16 μL of cell lysate were transferred to a PE 384-well HTRF detection plate; 4 μL of pre-mixed HTRF antibodies were added to each well; the plate was covered with a plate sealer, and then spinned at 1000 rpm for 1 min, then incubated overnight at room temperature; the results were read on BMG PheraStar with HTRF protocol (337 nm-665 nm-620 nm).
as §1

T1 sequence (Q06187 whole entry): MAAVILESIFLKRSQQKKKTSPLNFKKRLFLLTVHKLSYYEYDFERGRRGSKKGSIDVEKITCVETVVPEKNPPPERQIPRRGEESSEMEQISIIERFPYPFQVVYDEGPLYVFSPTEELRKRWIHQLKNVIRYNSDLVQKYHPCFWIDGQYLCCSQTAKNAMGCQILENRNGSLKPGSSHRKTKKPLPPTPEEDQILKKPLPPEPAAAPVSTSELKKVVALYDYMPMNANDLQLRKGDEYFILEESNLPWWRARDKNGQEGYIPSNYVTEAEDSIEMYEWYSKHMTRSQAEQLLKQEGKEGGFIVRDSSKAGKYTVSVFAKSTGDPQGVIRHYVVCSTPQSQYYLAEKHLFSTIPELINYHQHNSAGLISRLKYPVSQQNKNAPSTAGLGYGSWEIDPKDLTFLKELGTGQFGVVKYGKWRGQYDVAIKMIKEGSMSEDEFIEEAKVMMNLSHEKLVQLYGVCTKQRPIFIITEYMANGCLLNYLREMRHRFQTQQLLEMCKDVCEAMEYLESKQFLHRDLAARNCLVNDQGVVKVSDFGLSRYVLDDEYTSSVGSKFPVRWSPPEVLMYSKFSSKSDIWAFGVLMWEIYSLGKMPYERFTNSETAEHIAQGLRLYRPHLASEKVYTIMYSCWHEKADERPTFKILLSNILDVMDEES

DC50 (BTK)	SMILES	IC50 (HEK-293 cells)
3.57 nM	Cc1cc(-c2cc(Nc3ccc(N4CCN(C(=O)C5CN(c6cc(F)c(C7CCC(=O)NC7=O)c(F)c6)C5)CC4)cn3)ncn2)ccc1[C@@H](C)NC(=O)c1nc(C(C)(C)C)no1 (stereo partly drawn) [Example 27, 3-(tert-butyl)-N-((1R)-1-(4-(6-((5-(4-(1-(4-(2,6-dioxopiperidin-3-yl)-3,5-difluorophenyl)azetidine-3-carbonyl)piperazin-1-yl)pyridin-2-yl)amino)pyrimidin-4-yl)-2-methylphenyl)ethyl)-1,2,4-oxadiazole-5-carboxamide]	> 10000 nM
1.66 nM	Cc1cc(-c2cc(Nc3ccc(N4CCN(C(=O)C5CCN(c6ccc(N7CCC(=O)NC7=O)cc6)CC5)CC4)cn3)ncn2)ccc1[C@@H](C)NC(=O)c1nc(C(C)(C)C)no1 [Example 28, (R)-3-(tert-butyl)-N-(1-(4-(6-((5-(4-(1-(4-(2,4-dioxotetrahydropyrimidin-1(2H)-yl)phenyl)piperidine-4-carbonyl)piperazin-1-yl)pyridin-2-yl)amino)pyrimidin-4-yl)-2-methylphenyl)ethyl)-1,2,4-oxadiazole-5-carboxamide]	> 10000 nM
0.836 nM	Cc1cc(-c2cc(Nc3ccc(N4CCN(C(=O)C5CCN(c6ccc(N7CCC(=O)NC7=O)cc6)C5)CC4)cn3)ncn2)ccc1[C@@H](C)NC(=O)c1nc(C(C)(C)C)no1 (stereo partly drawn) [Example 29, 3-(tert-butyl)-N-((1R)-1-(4-(6-((5-(4-(1-(4-(2,4-dioxotetrahydropyrimidin-1(2H)-yl)phenyl)pyrrolidine-3-carbonyl)piperazin-1-yl)pyridin-2-yl)amino)pyrimidin-4-yl)-2-methylphenyl)ethyl)-1,2,4-oxadiazole-5-carboxamide]	> 10000 nM
0.539 nM	Cc1cc(-c2cc(Nc3ccc(N4CC5(CN(CC6CCN(c7ccc(N8CCC(=O)NC8=O)cc7)CC6)C5)C4)cn3)ncn2)ccc1[C@@H](C)NC(=O)c1nc(C(C)(C)C)no1 [Example 30, (R)-3-(tert-butyl)-N-(1-(4-(6-((5-(6-((1-(4-(2,4-dioxotetrahydropyrimidin-1(2H)-yl)phenyl)piperidin-4-yl)methyl)-2,6-diazaspiro [3.3]heptan-2-yl)pyridin-2-yl)amino)pyrimidin-4-yl)-2-methylphenyl)ethyl)-1,2,4-oxadiazole-5-carboxamide]	1000 nM
1.99 nM	Cc1cc(-c2cc(Nc3ccc(N4CCC5(CCN(CC6CCN(c7ccc(N8CCC(=O)NC8=O)cc7)CC6)C5)CC4)cn3)ncn2)ccc1[C@@H](C)NC(=O)c1nc(C(C)(C)C)no1 [Example 31, (R)-3-(tert-butyl)-N-(1-(4-(6-((5-(2-((1-(4-(2,4-dioxotetrahydropyrimidin-1(2H)-yl)phenyl)piperidin-4-yl)methyl)-2,8-diazaspiro[4.5]decan-8-yl)pyridin-2-yl)amino)pyrimidin-4-yl)-2-methylphenyl)ethyl)-1,2,4-oxadiazole-5-carboxamide]	1870 nM
1.73 nM	Cc1cc(-c2cc(Nc3ccc(N4CCC5(CC4)CN(CC4CCN(c6ccc(N7CCC(=O)NC7=O)cc6)CC4)C5)cn3)ncn2)ccc1[C@@H](C)NC(=O)c1nc(C(C)(C)C)no1 [Example 32, (R)-3-(tert-butyl)-N-(1-(4-(6-((5-(2-((1-(4-(2,4-dioxotetrahydropyrimidin-1(2H)-yl)phenyl)piperidin-4-yl)methyl)-2,7-diazaspiro [3.5]nonan-7-yl)pyridin-2-yl)amino)pyrimidin-4-yl)-2-methylphenyl)ethyl)-1,2,4-oxadiazole-5-carboxamide]	1910 nM
1.3 nM	Cc1cc(-c2cc(Nc3ccc(N4CC5(CCN(CC6CCN(c7ccc(N8CCC(=O)NC8=O)cc7)CC6)CC5)C4)cn3)ncn2)ccc1[C@@H](C)NC(=O)c1nc(C(C)(C)C)no1 [Example 33, (R)-3-(tert-butyl)-N-(1-(4-(6-((5-(7-((1-(4-(2,4-dioxotetrahydropyrimidin-1(2H)-yl)phenyl)piperidin-4-yl)methyl)-2,7-diazaspiro [3.5]nonan-2-yl)pyridin-2-yl)amino)pyrimidin-4-yl)-2-methylphenyl)ethyl)-1,2,4-oxadiazole-5-carboxamide]	> 10000 nM
1.88 nM	Cc1cc(-c2cc(Nc3ccc(N4CCC5(CCN(CC6CCN(c7ccc(N8CCC(=O)NC8=O)cc7)CC6)CC5)CC4)cn3)ncn2)ccc1[C@@H](C)NC(=O)c1nc(C(C)(C)C)no1 [Example 34, (R)-3-(tert-butyl)-N-(1-(4-(6-((5-(9-((1-(4-(2,4-dioxotetrahydropyrimidin-1(2H)-yl)phenyl)piperidin-4-yl)methyl)-3,9-diazaspiro [5.5]undecan-3-yl)pyridin-2-yl)amino)pyrimidin-4-yl)-2-methylphenyl)ethyl)-1,2,4-oxadiazole-5-carboxamide]	891 nM
0.981 nM	Cc1cc(-c2cc(Nc3ccc(N4CC5(CN(C(=O)C6CN(c7ccc(N8CCC(=O)NC8=O)cc7)C6)C5)C4)cn3)ncn2)ccc1[C@@H](C)NC(=O)c1nc(C(C)(C)C)no1 [Example 35, (R)-3-(tert-butyl)-N-(1-(4-(6-((5-(6-(1-(4-(2,4-dioxotetrahydropyrimidin-1(2H)-yl)phenyl)azetidine-3-carbonyl)-2,6-diazaspiro [3.3]heptan-2-yl)pyridin-2-yl)amino)pyrimidin-4-yl)-2-methylphenyl)ethyl)-1,2,4-oxadiazole-5-carboxamide]	> 10000 nM
0.566 nM	Cc1cc(-c2cc(Nc3ccc(N4CCC5(CC4)CN(C(=O)C4CN(c6ccc(N7CCC(=O)NC7=O)cc6)C4)C5)cn3)ncn2)ccc1[C@@H](C)NC(=O)c1nc(C(C)(C)C)no1 [Example 36, (R)-3-(tert-butyl)-N-(1-(4-(6-((5-(2-(1-(4-(2,4-dioxotetrahydropyrimidin-1(2H)-yl)phenyl)azetidine-3-carbonyl)-2,7-diazaspiro [3.5]nonan-7-yl)pyridin-2-yl)amino)pyrimidin-4-yl)-2-methylphenyl)ethyl)-1,2,4-oxadiazole-5-carboxamide]	> 10000 nM
0.835 nM	Cc1cc(-c2cc(Nc3ccc(N4CC5(CN(C(=O)C6CCN(c7ccc(N8CCC(=O)NC8=O)cc7)C6)C5)C4)cn3)ncn2)ccc1[C@@H](C)NC(=O)c1nc(C(C)(C)C)no1 (stereo partly drawn) [Example 37, 3-(tert-butyl)-N-((1R)-1-(4-(6-((5-(6-(1-(4-(2,4-dioxotetrahydropyrimidin-1(2H)-yl)phenyl)pyrrolidine-3-carbonyl)-2,6-diazaspiro [3.3]heptan-2-yl)pyridin-2-yl)amino)pyrimidin-4-yl)-2-methylphenyl)ethyl)-1,2,4-oxadiazole-5-carboxamide]	> 10000 nM
0.954 nM	Cc1cc(-c2cc(Nc3ccc(N4CCC5(CC4)CN(C(=O)C4CCN(c6ccc(N7CCC(=O)NC7=O)cc6)C4)C5)cn3)ncn2)ccc1[C@@H](C)NC(=O)c1nc(C(C)(C)C)no1 (stereo partly drawn) [Example 38, 3-(tert-butyl)-N-((1R)-1-(4-(6-((5-(2-(1-(4-(2,4-dioxotetrahydropyrimidin-1(2H)-yl)phenyl)pyrrolidine-3-carbonyl)-2,7-diazaspiro[3.5]nonan-7-yl)pyridin-2-yl)amino)pyrimidin-4-yl)-2-methylphenyl)ethyl)-1,2,4-oxadiazole-5-carboxamide]	> 10000 nM
0.209 nM	Cc1cc(-c2cc(Nc3ccc(N4CCN(C5CN(C6CN(c7ccc(N8CCC(=O)NC8=O)cc7)C6)C5)CC4)cn3)ncn2)ccc1[C@@H](C)NC(=O)c1nc(C(C)(C)C)no1 [Example 39, (R)-3-(tert-butyl)-N-(1-(4-(6-((5-(4-(1′-(4-(2,4-dioxotetrahydropyrimidin-1(2H)-yl)phenyl)-[1,3′-biazetidin]-3-yl)piperazin-1-yl)pyridin-2-yl)amino)pyrimidin-4-yl)-2-methylphenyl)ethyl)-1,2,4-oxadiazole-5-carboxamide]	> 10000 nM
